Data on five molecules can be found in patent US20240293554A1, “QUATERNIZED NICOTINAMIDE ADENINE DINUCLEOTIDE SALVAGE PATHWAY INHIBITOR CONJUGATES” (priority 2017, published 2024).

As usually defined, the IC50 is the concentration that inhibits the measured activity by half.

Data set [1] deals with L540cy. Briefly: CellTiter-Glo cytotoxicity assay, L540cy. The class given is cell-based. Conditions: L540cy (Hodgkin's lymphoma), 96 h. The procedure: (§1) In vitro cytotoxicity assays: Cells cultured in log-phase growth were seeded for 24 h in 96-well plates containing 150 μL RPMI 1640 supplemented with 20% FBS. Serial dilutions of free drugs or antibody-drug conjugates in cell culture media were prepared at 4× working concentrations; 50 μL of each dilution was added to the 96-well plates. Following addition of ADC, cells were incubated with test articles for 4 d at 37° C. After 96 h, growth inhibition was assessed by CellTiter-Glo™ (Promega, Madison, WI) and luminescence was measured on a plate reader. The IC50 value is defined here as the concentration that results in a 50% reduction in cell growth relative to untreated controls.
(§2) Example 89. Binding and cytoxicity of NAMPTi compounds.
(§3) Karpas 299 (non-Hodgkin's lymphoma), L540cy (Hodgkin's lymphoma), Ramos (Burkitt's lymphoma), HepG2 (hepatocellular carcinoma), Hep3B (hepatocellular carcinoma). NAMPTi compounds of Table 1 have the following structures: […]
On the technique in general: Cellular ATP, detected with luciferase, serves as a proxy for viable cell number.

The test system of data set [2] is Ramos. Put plainly: CellTiter-Glo cytotoxicity assay, Ramos. It is filed as cell-based. Conditions: Ramos (Burkitt's lymphoma), 96 h. The procedure: as §1, §2, §3
Data set [3] relates to HepG2. Briefly: CellTiter-Glo cytotoxicity assay, HepG2. Conditions: HepG2 (hepatocellular carcinoma), 96 h. It is filed as cell-based. As for the experimental part: as §1, §2, §3
Data set [4] concerns the target purified NAMPT (Homo sapiens, UniProt P43490). The conditions noted are these: read-out: FP assay (IC50); NAMPT 120 nM, fluorescent probe 30 nM, 4 hours room temp.
Data set [5] has as its system L540cy xenograft. Briefly: L540cy Hodgkin's lymphoma xenograft model. The conditions noted are these: cAC10 ADC (8 drugs per antibody) from the named Drug Linker compound; for tumor growth delay: single 1 mg/kg dose ip on day 8, tumors ~100 mm^3; for tolerability (weight loss, outward signs of toxicity): single 1 mg/kg dose ip, SCID mice. It is filed as in vivo, SCID mice. The procedure: In vivo xenograft models. All experiments were conducted in concordance with the Animal Care and Use Committee in a facility fully accredited by the Association for Assessment and Accreditation of Laboratory Animal Care. Efficacy experiments were conducted in the L540cy Hodgkin's lymphoma model. Tumor cells, as a cell suspension, were implanted sub-cutaneous in immune-compromised SCID mice. Upon tumor engraftment, mice were randomized to study groups (5 mice per group) when the average tumor volume reached about 100 mm^3. The ADC or controls were dosed once via intraperitoneal injection. Tumor volume as a function of time was determined using the formula (L×W^2)/2. Animals were euthanized when tumor volumes reached 750 mm^3. Mice showing durable regressions were terminated after 10-12 weeks post implant.
[…] chimeric antibody cAC10 were prepared from Drug Linker compounds 5 (MDPr-GlucQ-FK866), 12 (MDPr-GlucQ-6050) and 26 (MDPr-GlucQ-6553) to provide ADCs carrying 8 drugs per antibody. Animals were implanted with tumor cells on day 0. Tumors reached ˜100 mm^3 on day 8, and were then treated with a single 1 mg/kg dose (ip) of ADCs.

Molecules are shown by their SMILES.

Chain of purified NAMPT (P43490 whole entry): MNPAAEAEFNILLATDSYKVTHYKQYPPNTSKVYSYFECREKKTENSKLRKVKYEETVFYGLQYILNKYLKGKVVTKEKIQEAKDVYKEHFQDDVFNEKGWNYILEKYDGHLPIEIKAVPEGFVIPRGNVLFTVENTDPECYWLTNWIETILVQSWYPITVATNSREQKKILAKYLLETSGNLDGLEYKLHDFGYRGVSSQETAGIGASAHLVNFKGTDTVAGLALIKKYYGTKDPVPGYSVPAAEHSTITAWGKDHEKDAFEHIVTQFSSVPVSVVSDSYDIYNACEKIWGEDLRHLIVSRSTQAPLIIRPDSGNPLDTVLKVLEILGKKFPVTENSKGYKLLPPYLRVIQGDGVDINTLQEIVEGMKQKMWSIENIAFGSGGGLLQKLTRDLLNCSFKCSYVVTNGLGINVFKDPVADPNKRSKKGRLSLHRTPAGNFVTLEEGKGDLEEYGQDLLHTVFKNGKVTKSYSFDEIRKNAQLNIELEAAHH

As to `NCCC(=O)Nc1cc(C[n+]2ccn3cc(C(=O)NCc4ccc(S(=O)(=O)c5cc(F)cc(F)c5)cc4)ccc32)ccc1O[C@@H]1O[C@H](C(=O)O)[C@@H](O)[C@H](O)[C@H]1O` [Compound 28, 1-(3-(3-ammoniopropanamido)-4-(((2S,3R,4S,5S,6S)-6-carboxy-3,4,5-trihydroxytetrahydro-2H-pyran-2-yl)oxy)benzyl)-6-((4-((3,5-difluorophenyl)-sulfonyl)benzyl)carbamoyl)imidazo[1,2-a]pyridin-1-ium 2,2,2-trifluoroacetate], the IC50 in data set [1] came to 8.5 nM; in data set [2] it was 1 nM; in data set [3] it was 8 nM; in data set [4], 47 nM.

For `NC[C@@H](C(=O)NCCC(=O)Nc1cc(C[n+]2cccc(/C=C/C(=O)NCCCCC3CCN(C(=O)c4ccccc4)CC3)c2)ccc1O[C@@H]1O[C@H](C(=O)O)[C@@H](O)[C@H](O)[C@H]1O)N1C(=O)C=CC1=O` [Compound 5, 1-(3-(3-((S)-3-amino-2-(2,5-dioxo-2,5-dihydro-1H-pyrrol-1-yl)propanamido)propanamido)-4-(((2S, 3R, 4S, 5S, 6S)-6-carboxy-3,4,5-trihydroxy-tetrahydro-2H-pyran-2-yl)oxy)benzyl)-3-((E)-3-((4-(1-benzoylpiperidin-4-yl)butyl)amino)-3-oxoprop-1-en-1-yl)pyridin-1-ium 2,2,2-trifluoroacetate], in data set [5], the tumor growth delay entry is “varying levels of tumor growth delay” and the “tolerability (weight loss, outward signs of toxicity)” value is “well-tolerated, with no weight loss or outward signs of toxicity observed”.

Consider `CC(C)(C)OC(=O)NC[C@@H](C(=O)NCCC(=O)Nc1cc(C[n+]2ccn3cc(C(=O)NCc4ccc(S(=O)(=O)c5cc(F)cc(F)c5)cc4)ccc32)ccc1O[C@@H]1O[C@H](C(=O)O)[C@@H](O)[C@H](O)[C@H]1O)N1C(=O)C=CC1=O` [Compound 29, 1-(3-(3-((S)-3-((tert-butoxycarbonyl)amino)-2-(2,5-dioxo-2,5-dihydro-1H-pyrrol-1-yl)propanamido)propanamido)-4-(((2S,3R,4S,5S,6S)-6-carboxy-3,4,5-trihydroxytetrahydro-2H-pyran-2-yl)oxy)benzyl)-6-((4-((3,5-difluorophenyl)-sulfonyl)benzyl)carbamoyl)imidazo[1,2-a]pyridin-1-ium 2,2,2-trifluoroacetate], for which the IC50 in data set [1] amounted to 0.78 nM; in data set [2], 0.71 nM; in data set [3] it was 1.08 nM; in data set [4] it was 36 nM.

With `NC[C@@H](C(=O)NCCC(=O)Nc1cc(C[n+]2cccc(/C=C/C(=O)NCCCCC3CCN(C(=O)c4cccc(N)c4)CC3)c2)ccc1O[C@@H]1O[C@H](C(=O)O)[C@@H](O)[C@H](O)[C@H]1O)N1C(=O)C=CC1=O` [Compound 12, 1-(3-(3-((S)-3-ammonio-2-(2,5-dioxo-2,5-dihydro-1H-pyrrol-1-yl)propanamido)propanamido)-4-(((2S,3R,4S,5S,6S)-6-carboxy-3,4,5-trihydroxytetrahydro-2H-pyran-2-yl)oxy)benzyl)-3-((E)-3-((4-(1-(3-ammoniobenzoyl)piperidin-4-yl)butyl)amino)-3-oxoprop-1-en-1-yl)pyridin-1-ium 2,2,2-trifluoroacetate], in data set [5], the tumor growth delay entry was “varying levels of tumor growth delay” and the “tolerability (weight loss, outward signs of toxicity)” value is listed as “well-tolerated, with no weight loss or outward signs of toxicity observed”.

Take `CN(CC1(CO)CCCC1)C(=O)CCCCCCCN/C(=N\C#N)Nc1cc[n+](Cc2ccc(O[C@@H]3O[C@H](C(=O)O)[C@@H](O)[C@H](O)[C@H]3O)c(NC(=O)CCNC(=O)CCN3C(=O)C=CC3=O)c2)cc1` [Compound 26, 1-(4-(((2S,3R,4S,5S,6S)-6-carboxy-3,4,5-trihydroxytetrahydro-2H-pyran-2-yl)oxy)-3-(3-(3-(2,5-dioxo-2,5-dihydro-1H-pyrrol-1-yl)propanamido)-propanamido)benzyl)-4-((E)-2-cyano-3-(8-(((1-(hydroxymethyl)cyclopentyl)methyl)-(methyl)amino)-8-oxooctyl)guanidino)pyridin-1-ium 2,2,2-trifluoroacetate]: in data set [5], the tumor growth delay entry is “varying levels of tumor growth delay” and the “tolerability (weight loss, outward signs of toxicity)” value is “well-tolerated, with no weight loss or outward signs of toxicity observed”.
